These results are taken from publication PMC7417534, “Cytochrome P450 inhibition potential and initial genotoxic evaluation of 14-O-[(4,6-diaminopyrimidine-2-yl)thioacetyl] mutilin” (Scientific Reports, 2020).

SMILES strings stand for the structures.

One series deals with CYP1A2 mRNA. As to the kind of experiment: CYP1A2 mRNA expression in Hep G2 cells (real-time PCR). The class given is cell-based, human. As to the method:
(§1) The logarithmic growth phase Hep G2 cells were seeded into 12-well plastic plates at a density of […]. After incubation at 37 °C under 5% CO2 for 24 h, the media were then replaced with 1 mL of serial dilutions of the DPTM (4.98, 0.16 and 0.08 mM) in fresh media. When cells were incubated for 2, 4 and 12 h at 37 °C under 5% CO2, the RNA was isolated using the Trizol reagent according to the manufacturer’s protocol. Total RNA (5 μL) was transcribed into cDNA by using the PrimeScript RT reagent Kit (Perfect Real Time). The obtained cDNA (5 μL) was added for 45 cycles of PCR amplification to detect the mRNA expression (the primers and sequences used herein were given in Table 3) using the ABI Villa TM7Dx real-time PCR system (Gaithersburg, USA). Glyceraldehyde-3-phosphate dehydrogenase (GAPDH) was used as reference gene. All reactions were performed in a final volume of 20 μL (10 μL of 2 × SYBR Green Real-time PCR Master Mix, 2 μL of cDNA and 2 μL of the primers and 6 μL DEPC water) and executed in triplicate.
(In general: Quantitative PCR measures a nucleic acid by following its amplification.)

For a further series, the system named is CYP2C9 mRNA. The series can be described thus: CYP2C9 mRNA expression in Hep G2 cells (real-time PCR). Type of series: cell-based, human. As to conditions: 2 and 4 h, 4.98, 0.16 and 0.08 mM. On the procedure: as §1
The next series relates to Hep G2 cells. As to the kind of experiment: MTT cytotoxicity assay on Hep G2 cells. The class given is cell-based, human. Conditions: Homo sapiens, HepG2, 24 h incubation, read-out: IC50 value, cell viability (MTT). As to the method: Intrinsic toxicity of DPTM was conducted as described in the literature[36]–[38] with some modifications. […] After proliferating to logarithmic growth phase at 37 °C under 5% CO2, cells were seeded to a new 96-well plate with a density of […] and cultured for 24 h at the same condition. The media were replaced with 100 μL of serial dilutions of DPTM (10 mg DPTM was dissolved in 1 mL 1% DMSO to a solution and then diluted two-fold with distilled water to provide 19.91, 9.96, 4.98, 2.49, 1.25, 0.62, 0.31, 0.16 and 0.08 mM serial dilutions). The blank group only used 1% DMSO to replace the media. The obtained mixture was incubated for 24 h. After that, all media in cells were removed and 20 μL of MTT reagent was added for an additional 4 h. Then, supernatant fraction was removed and 100 μL dimethyl sulfoxide (DMSO) was added, followed by incubation at 37 °C for 15 min. The absorbance of each well was determined by a spectrophotometer at dual wavelengths of 570 and 279 nm for the background. The viability percentage was calculated by the following formula: cell viability % = (ODsample − ODblank/ODcontrol − ODblank) × 100. A sigmoid-shaped curve was fitted to the data, and the IC50 was calculated by fitting the Hill equation to the data with nonlinear regression (least-squares best fit modelling) using GraphPad Prism 4 (GraphPad Software Inc., San Diego, USA). […]
On the technique in general: Tetrazolium assays rely on reduction of a dye to a coloured formazan, in cell work by metabolically active cells.

The next series addresses T1, CYP1A2 (Rattus norvegicus, UniProt P04799).
T1 construct: containing 100 μL RLMs or HLMs; tissue Research Institute for Liver Diseases (Shanghai) Co., Ltd; host or cells: male SD rat liver microsomes
As to the kind of experiment: Cocktail CYP inhibition in rat liver microsomes, CYP1A2 (phenacetin). The class given is in vitro ADME. As to conditions: cocktail method, read-out: IC50 values, CYP1A2 in RLMs. As to the method:
(§2) We used the cocktail method to study the inhibition activities of DPTM against CYP enzymes in RLMs and HLMs with slight modification. DPTM (250 μmol) was dissolved in 1.25 mL methanol to a solution and then diluted with methanol and water to 2, 10, 20, 100, 200, 400, 1,000 and 2000 μM, respectively. The obtained serial dilutions (10 μL) were added to the incubation mixtures (200 μL total volume), containing 100 μL RLMs or HLMs (final concentration was 5 μg/μL, respectively), 10 μL glucose-6-phosphate (final concentration was 1 mM), 10 μL glucose-6-phosphate dehydrogenase (final concentration was 0.1 U/L), 20 μL potassium phosphate buffer (final concentration was 0.01 M) and 20 μL MgCl2 (final concentration was 2 mM), to give the final concentrations were 0.1, 0.5, 1, 5 10, 20, 50, and 100 μM, respectively. For the groups that in the absence of DPTM, 10 μL methanol (1%) replaced the DPTM and was added to the incubation mixtures. […] The final concentration of methanol in all the incubation mixtures, including the blank group, was […]. […] The determined metabolic substrates were used for calculating the relative enzyme activity (Erel) by the following formula: Erel (%) = Ci(n)/Ci(0) × 100%, in which Ci(n) was the determined metabolic substrates in the presence of varying concentrations of DPTM and Ci(0) was the determined metabolic substrates in the absence of DPTM. […]
(In general: Microsomes from liver hold many membrane-bound enzymes, among them those of drug oxidation.)

On the set-up of series [1]: method as in PMID 30813235. Conditions: rats, intravenous administration; cited from earlier work.
The target of the next series is T2, CYP2E1 (Rattus norvegicus, UniProt P05182).
T2 construct: containing 100 μL RLMs or HLMs; tissue Research Institute for Liver Diseases (Shanghai) Co., Ltd; host or cells: male SD rat liver microsomes
As to the kind of experiment: Cocktail CYP inhibition in rat liver microsomes, CYP2E1 (chlorzoxazone). As to conditions: cocktail method, read-out: IC50 values, CYP2E1 in RLMs. Type of series: in vitro ADME. As to the method:
as §2

T2 sequence (P05182 whole entry): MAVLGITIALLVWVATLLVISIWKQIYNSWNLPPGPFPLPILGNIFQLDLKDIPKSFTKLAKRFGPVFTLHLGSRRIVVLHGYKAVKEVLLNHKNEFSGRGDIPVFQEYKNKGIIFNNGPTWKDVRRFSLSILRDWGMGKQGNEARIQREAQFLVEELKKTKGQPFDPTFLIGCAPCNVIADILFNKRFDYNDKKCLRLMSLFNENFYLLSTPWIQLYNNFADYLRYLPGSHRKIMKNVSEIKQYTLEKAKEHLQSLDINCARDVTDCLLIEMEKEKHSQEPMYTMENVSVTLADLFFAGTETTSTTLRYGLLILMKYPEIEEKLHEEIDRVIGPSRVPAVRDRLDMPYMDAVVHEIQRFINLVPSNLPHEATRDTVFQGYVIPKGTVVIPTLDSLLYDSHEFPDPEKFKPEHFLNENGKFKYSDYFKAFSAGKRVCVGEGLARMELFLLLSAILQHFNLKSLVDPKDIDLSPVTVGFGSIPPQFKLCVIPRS
T1 sequence (P04799 whole entry): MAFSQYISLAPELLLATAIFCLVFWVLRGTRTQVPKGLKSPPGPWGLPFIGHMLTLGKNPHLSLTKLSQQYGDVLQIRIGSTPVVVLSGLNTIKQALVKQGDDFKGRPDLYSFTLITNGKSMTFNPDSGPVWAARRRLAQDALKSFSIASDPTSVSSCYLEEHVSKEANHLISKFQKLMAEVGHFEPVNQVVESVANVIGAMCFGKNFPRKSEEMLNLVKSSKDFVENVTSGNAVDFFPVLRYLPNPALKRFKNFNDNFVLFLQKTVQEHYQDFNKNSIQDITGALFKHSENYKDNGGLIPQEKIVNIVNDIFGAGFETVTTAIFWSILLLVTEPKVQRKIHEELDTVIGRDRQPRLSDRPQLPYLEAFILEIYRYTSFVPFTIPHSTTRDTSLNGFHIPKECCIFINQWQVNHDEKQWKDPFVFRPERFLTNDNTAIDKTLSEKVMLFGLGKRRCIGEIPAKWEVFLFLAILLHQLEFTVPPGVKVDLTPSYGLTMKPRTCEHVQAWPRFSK

What is called IC50 is the concentration that inhibits the measured activity by half. Take `C=CC1(C)CC(OC(=O)CSc2nc(N)cc(N)n2)C2(C)C(C)CCC3(CCC(=O)C32)C(C)C1O` (stereo not shown) [DPTM, 14-O-[(4,6-Diaminopyrimidine-2-yl)thioacetyl] mutilin]: the “CYP1A2 mRNA expression versus control” value in the series on CYP1A2 mRNA (2 and 4 h, 4.98, 0.16 and 0.08 mM) is reported as “significantly increase”; in the series on CYP1A2 mRNA (12 h), “significantly lowered”. Besides, the “CYP2C9 mRNA expression versus control” value with CYP2C9 mRNA was “significantly increase”. In addition, the IC50 in the series on Hep G2 cells was 10000 ± 2000 µM; on CYP1A2 it was above 100 µM; at CYP2E1, 61 ± 8 µM. In addition, in series [1], the “half-life (t1/2)” value was 1.7 to 1.9 h.
